Source: BindingDB's records for doi:10.1016/j.bmc.2006.10.040 (University of Camerino, 2007)

Tests used:
[1] = biological target: T1, Muscarinic acetylcholine receptor M2 (Homo sapiens, UniProt P08172); experiment: Agonist activity at human muscarinic M2 receptor expressed in CHO cells
T1 sequence (P08172 whole entry): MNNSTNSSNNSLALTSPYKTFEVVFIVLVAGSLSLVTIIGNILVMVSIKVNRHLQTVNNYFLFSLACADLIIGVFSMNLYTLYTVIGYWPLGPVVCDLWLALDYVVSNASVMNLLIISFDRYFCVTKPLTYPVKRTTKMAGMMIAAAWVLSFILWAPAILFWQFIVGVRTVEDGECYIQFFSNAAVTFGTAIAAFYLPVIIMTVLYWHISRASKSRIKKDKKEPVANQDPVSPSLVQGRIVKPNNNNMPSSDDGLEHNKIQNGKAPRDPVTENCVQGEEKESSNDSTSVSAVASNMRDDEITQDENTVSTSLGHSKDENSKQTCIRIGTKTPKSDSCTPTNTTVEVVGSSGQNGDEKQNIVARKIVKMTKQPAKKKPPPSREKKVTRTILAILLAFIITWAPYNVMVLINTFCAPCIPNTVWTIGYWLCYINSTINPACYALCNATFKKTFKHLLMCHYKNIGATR

[2] = biological target: T2, Muscarinic acetylcholine receptor M5 (Homo sapiens, UniProt P08912); experiment: Agonist activity at human muscarinic M5 receptor expressed in CHO cells
T2 sequence (P08912 whole entry): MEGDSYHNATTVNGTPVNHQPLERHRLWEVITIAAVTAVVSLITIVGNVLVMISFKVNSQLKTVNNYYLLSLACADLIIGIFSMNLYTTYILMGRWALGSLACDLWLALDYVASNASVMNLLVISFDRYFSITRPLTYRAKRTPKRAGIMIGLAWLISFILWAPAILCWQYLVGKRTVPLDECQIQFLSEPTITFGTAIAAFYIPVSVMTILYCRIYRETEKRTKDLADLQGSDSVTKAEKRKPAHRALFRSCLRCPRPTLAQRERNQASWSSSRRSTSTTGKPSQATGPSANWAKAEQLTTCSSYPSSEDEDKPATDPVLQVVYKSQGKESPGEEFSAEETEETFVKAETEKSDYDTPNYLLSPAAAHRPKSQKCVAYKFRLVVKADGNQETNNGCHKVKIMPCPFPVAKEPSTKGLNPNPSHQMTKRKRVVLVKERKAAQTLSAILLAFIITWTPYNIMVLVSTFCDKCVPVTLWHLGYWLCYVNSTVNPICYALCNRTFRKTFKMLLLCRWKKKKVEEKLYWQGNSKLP

Structure (SMILES) | EC50 [1] | EC50 [2]
C[C@@H]1COC[C@H](C[N+](C)(C)C)O1 | 15.4 µM | 
C[C@H]1COC[C@@H](C[N+](C)(C)C)O1 | 37.1 µM | 3.71 µM
CC1COCC(C[N+](C)(C)C)O1 (centres undefined) |  | 7.94 µM
